Assay results taken from ChEMBL document CHEMBL4376804, “Review of Transient Receptor Potential Canonical (TRPC5) Channel Modulators and Diseases” (J Med Chem, 2019).

What was measured:
[1] = target: T1, Short transient receptor potential channel 4 (Homo sapiens, UniProt Q9UBN4); experiment: Inhibition of human TRPC4 expressed in HEK293 cells assessed as reduction in englerin A-induced calcium entry incubated for 30 mins by Fluo-4AM dye based fluorescence assay; format: cell-based
T1 sequence (Q9UBN4 whole entry): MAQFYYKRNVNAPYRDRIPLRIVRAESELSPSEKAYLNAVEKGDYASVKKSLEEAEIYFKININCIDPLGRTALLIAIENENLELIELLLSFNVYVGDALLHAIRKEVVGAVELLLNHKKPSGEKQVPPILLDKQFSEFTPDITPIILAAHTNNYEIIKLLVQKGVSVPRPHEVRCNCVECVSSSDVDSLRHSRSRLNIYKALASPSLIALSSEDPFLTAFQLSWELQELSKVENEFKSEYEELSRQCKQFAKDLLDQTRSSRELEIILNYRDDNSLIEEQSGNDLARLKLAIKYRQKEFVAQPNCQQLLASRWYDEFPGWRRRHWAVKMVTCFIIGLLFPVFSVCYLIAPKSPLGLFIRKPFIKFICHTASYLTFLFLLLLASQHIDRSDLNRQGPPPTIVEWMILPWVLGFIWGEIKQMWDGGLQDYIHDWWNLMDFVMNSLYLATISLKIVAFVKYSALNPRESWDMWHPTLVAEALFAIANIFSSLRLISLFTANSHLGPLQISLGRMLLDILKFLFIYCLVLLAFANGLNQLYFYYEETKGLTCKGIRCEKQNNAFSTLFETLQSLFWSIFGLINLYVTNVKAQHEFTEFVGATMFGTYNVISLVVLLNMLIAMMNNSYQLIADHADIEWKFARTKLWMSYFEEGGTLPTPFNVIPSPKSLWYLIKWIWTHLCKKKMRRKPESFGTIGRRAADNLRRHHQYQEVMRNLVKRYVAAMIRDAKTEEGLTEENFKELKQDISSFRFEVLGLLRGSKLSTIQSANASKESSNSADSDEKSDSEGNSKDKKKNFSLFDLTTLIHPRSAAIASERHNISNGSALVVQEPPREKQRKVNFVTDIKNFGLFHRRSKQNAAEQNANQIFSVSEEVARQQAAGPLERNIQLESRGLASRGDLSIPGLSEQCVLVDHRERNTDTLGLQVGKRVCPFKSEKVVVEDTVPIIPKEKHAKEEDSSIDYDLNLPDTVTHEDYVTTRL

TRPC1/TRPC5 = TRPC1/TRPC5 (Homo sapiens, UniProt P48995+Q9UL62); experiment: Inhibition of human TRPC5/human TRPC1 expressed in HEK293 cells assessed as reduction in englerin A-induced calcium entry incubated for 30 mins by Fluo-4AM dye based fluorescence assay; format: cell-based
TRPC4/TRPC1 = TRPC4/TRPC1 (Homo sapiens, UniProt P48995+Q9UBN4); experiment: Inhibition of human TRPC4/human TRPC1 expressed in HEK293 cells assessed as reduction in englerin A-induced calcium entry incubated for 30 mins by Fluo-4AM dye based fluorescence assay; format: cell-based
[2] = target: T1, Short transient receptor potential channel 4; experiment: Inhibition of human TRPC4 expressed in HEK293 cells assessed as reduction in sphingosine-1-phosphate-induced current at -100 mV by patch clamp assay; format: cell-based
[3] = target: T1, Short transient receptor potential channel 4; experiment: Inhibition of human TRPC4 expressed in HEK293 cells assessed as reduction in sphingosine-1-phosphate-induced current at +100 mV by patch clamp assay; format: cell-based
TRPC6 [4] = experiment: Agonist activity at TRPC6 expressed in HEK293 cells coexpressing M5 receptor assessed as induction of TRPC6-mediated calcium influx by fluorescence method
[5] = target: T2, Short transient receptor potential channel 6 (Homo sapiens, UniProt Q9Y210); experiment: Inhibition of human TRPC6 expressed in thapsigargin pretreated HEK293 cells assessed as reduction in GPCR-induced calcium entry by fluo-4/AM dye based assay; format: cell-based
T2 sequence (Q9Y210 whole entry): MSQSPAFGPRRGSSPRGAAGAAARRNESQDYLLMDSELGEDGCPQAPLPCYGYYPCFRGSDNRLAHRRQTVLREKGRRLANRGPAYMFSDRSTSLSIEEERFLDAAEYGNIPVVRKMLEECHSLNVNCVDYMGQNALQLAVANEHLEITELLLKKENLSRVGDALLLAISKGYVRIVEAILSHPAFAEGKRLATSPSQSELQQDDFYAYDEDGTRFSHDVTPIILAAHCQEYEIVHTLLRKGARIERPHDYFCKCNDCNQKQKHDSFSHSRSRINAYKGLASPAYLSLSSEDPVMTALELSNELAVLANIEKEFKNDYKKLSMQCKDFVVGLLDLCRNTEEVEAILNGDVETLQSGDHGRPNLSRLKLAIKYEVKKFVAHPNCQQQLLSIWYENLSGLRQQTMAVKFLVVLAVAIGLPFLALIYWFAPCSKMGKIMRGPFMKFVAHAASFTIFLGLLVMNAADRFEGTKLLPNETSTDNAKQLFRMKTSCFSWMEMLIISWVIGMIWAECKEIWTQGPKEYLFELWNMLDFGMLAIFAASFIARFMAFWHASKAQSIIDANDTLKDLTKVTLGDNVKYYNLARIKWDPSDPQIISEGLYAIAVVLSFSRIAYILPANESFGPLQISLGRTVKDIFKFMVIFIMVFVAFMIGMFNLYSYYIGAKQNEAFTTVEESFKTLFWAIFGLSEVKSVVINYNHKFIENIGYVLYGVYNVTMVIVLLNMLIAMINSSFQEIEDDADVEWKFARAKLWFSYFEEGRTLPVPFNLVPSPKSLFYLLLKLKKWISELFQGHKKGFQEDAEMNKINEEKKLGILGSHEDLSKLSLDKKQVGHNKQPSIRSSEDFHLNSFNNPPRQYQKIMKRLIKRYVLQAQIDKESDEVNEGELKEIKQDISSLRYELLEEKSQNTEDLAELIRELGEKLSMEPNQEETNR

[6] = Drug concentration in C57BL/6 mouse plasma at 1 mg/kg, iv after 2 hrs by liquid chromatography-tandem mass spectrometry; format: ADME, organism-based; conditions: in vivo
[7] = Drug concentration in C57BL/6 mouse brain at 1 mg/kg, iv after 2 hrs by liquid chromatography-tandem mass spectrometry; format: ADME, organism-based; conditions: read-out: Drug uptake
[8] = Protein binding in C57BL/6 mouse plasma assessed as unbound fraction by liquid chromatography-tandem mass spectrometry; format: ADME, cell-free
[9] = target: T3, Short transient receptor potential channel 5 (Homo sapiens, UniProt Q9UL62); experiment: Inhibition of TRPC5 (unknown origin)
T3 sequence (Q9UL62 whole entry): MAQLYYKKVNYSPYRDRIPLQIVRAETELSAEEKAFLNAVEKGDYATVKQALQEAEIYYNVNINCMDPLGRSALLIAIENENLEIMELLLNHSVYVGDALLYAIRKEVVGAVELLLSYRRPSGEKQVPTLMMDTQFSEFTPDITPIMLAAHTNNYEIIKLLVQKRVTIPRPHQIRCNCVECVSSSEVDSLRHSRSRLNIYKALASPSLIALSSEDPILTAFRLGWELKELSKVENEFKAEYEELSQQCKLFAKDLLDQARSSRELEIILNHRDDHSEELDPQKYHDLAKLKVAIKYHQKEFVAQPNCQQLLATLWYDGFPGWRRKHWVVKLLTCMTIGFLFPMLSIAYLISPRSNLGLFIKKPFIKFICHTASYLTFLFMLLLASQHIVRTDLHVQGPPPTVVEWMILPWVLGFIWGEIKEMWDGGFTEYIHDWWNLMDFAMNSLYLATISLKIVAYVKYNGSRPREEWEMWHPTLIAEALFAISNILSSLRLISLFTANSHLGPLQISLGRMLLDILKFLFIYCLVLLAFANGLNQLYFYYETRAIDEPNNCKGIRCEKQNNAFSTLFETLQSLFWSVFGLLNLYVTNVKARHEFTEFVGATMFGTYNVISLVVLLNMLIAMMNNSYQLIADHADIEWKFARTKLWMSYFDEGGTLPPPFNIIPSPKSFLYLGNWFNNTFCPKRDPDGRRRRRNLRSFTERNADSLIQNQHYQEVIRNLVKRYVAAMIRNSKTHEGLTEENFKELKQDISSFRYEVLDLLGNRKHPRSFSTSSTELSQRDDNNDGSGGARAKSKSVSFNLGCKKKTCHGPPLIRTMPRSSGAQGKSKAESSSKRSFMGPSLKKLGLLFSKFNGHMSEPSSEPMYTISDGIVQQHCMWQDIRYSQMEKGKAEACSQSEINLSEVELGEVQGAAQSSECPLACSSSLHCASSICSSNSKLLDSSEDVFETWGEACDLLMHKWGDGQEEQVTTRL

[10] = target: T4, Short transient receptor potential channel 3 (Homo sapiens, UniProt Q13507); experiment: Inhibition of YFP-tagged TRPC3 (unknown origin) expressed in HEK293 cells assessed as reduction carbhocol-induced receptor operated Calcium influx after 5 mins by fura-2-AM dye based assay; format: cell-based
T4 sequence (Q13507 whole entry): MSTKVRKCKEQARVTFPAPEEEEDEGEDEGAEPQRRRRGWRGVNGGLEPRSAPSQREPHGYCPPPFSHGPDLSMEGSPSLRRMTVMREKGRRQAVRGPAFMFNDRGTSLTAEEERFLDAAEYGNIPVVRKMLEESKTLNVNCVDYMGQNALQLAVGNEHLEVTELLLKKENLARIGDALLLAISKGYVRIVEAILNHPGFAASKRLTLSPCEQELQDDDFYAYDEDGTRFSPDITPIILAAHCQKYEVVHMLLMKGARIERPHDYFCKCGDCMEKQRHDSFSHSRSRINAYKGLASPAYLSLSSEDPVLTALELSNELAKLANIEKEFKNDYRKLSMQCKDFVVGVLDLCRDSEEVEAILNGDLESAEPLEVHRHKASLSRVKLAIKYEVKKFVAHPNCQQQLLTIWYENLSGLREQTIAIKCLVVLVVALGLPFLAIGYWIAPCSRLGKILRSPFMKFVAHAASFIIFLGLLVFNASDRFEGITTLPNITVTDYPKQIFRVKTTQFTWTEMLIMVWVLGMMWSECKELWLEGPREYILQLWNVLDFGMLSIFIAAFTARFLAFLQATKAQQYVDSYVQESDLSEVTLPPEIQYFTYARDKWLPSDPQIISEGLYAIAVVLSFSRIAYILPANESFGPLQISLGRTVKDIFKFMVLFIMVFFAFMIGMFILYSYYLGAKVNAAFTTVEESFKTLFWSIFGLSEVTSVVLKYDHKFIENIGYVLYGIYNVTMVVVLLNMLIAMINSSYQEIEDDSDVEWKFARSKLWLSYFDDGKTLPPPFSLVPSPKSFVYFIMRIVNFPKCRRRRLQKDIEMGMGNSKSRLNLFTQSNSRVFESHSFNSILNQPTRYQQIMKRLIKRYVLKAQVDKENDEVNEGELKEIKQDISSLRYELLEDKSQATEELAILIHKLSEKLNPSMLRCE

ORAI1/STIM1 = ORAI1/STIM1 (Rattus norvegicus, UniProt P84903+Q5M848); experiment: Inhibition of ORAI/STIM1 in thapsigargin treated rat RBL2H3 cells assessed as reduction in store-operated calcium entry after 5 mins by fura-2-AM dye based assay; format: cell-based
AGS [11] = experiment: Antiproliferative activity against human AGS cells by MTT assay; format: functional, cell-based
MKN-45 = experiment: Antiproliferative activity against human MKN45 cells by MTT assay; format: functional, cell-based
AGS [12] = experiment: Antitumor activity against human AGS cells xenografted in BALB/c mouse assessed as reduction in tumor growth at 100 mg/kg, ip BID administered for 2 consecutive weeks and measured every 3 days during compound dosing relative to control; format: functional; conditions: 72 h, read-out: TGI
AGS [13] = experiment: Antitumor activity against human AGS cells xenografted in BALB/c mouse assessed as reduction in tumor growth at 200 mg/kg, ip BID administered for 2 consecutive weeks and measured every 3 days during compound dosing relative to control; format: functional; conditions: 72 h, read-out: TGI
TRPC6 [14] = experiment: Inhibition of TRPC6 expressed in HEK293 cells coexpressing M5 receptor assessed as reduction in TRPC6-mediated calcium influx by fluorescence method
[15] = target: T4, Short transient receptor potential channel 3; experiment: Inhibition of TRPC3 (unknown origin)
[16] = Inhibition of ORAI (unknown origin) assessed as reduction in Ang2-induced NFAT translocation; parameters: species or system Homo sapiens

Chain of ORAI1/STIM1 (P84903 whole entry): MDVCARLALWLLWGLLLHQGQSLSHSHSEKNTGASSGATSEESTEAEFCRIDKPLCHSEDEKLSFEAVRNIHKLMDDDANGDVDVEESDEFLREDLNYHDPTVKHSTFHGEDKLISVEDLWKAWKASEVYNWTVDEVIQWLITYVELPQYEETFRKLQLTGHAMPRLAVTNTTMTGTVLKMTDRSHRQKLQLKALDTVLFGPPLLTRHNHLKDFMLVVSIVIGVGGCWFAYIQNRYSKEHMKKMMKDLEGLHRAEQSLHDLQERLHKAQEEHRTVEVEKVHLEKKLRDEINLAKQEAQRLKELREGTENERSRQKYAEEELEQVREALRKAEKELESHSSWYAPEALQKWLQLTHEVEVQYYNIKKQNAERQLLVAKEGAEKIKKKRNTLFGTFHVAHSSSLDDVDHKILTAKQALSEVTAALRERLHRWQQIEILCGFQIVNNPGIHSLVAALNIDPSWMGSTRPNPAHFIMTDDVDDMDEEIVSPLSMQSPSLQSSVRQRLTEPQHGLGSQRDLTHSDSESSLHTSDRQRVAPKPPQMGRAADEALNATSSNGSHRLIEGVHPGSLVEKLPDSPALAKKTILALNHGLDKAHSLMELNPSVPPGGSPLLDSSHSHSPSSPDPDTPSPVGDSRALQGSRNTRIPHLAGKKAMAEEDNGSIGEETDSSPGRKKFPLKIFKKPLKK
Chain of ORAI1/STIM1 (Q5M848 whole entry): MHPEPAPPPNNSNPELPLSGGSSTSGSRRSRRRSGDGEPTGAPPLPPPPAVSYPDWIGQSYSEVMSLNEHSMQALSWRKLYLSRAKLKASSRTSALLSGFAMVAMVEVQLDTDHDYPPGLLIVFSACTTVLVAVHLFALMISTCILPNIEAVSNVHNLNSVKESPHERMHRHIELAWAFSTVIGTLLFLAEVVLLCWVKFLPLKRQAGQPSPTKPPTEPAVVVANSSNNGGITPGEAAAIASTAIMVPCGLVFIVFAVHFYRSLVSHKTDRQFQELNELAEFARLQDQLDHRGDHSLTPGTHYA
Chain of TRPC1/TRPC5 (P48995 whole entry, one chain of several): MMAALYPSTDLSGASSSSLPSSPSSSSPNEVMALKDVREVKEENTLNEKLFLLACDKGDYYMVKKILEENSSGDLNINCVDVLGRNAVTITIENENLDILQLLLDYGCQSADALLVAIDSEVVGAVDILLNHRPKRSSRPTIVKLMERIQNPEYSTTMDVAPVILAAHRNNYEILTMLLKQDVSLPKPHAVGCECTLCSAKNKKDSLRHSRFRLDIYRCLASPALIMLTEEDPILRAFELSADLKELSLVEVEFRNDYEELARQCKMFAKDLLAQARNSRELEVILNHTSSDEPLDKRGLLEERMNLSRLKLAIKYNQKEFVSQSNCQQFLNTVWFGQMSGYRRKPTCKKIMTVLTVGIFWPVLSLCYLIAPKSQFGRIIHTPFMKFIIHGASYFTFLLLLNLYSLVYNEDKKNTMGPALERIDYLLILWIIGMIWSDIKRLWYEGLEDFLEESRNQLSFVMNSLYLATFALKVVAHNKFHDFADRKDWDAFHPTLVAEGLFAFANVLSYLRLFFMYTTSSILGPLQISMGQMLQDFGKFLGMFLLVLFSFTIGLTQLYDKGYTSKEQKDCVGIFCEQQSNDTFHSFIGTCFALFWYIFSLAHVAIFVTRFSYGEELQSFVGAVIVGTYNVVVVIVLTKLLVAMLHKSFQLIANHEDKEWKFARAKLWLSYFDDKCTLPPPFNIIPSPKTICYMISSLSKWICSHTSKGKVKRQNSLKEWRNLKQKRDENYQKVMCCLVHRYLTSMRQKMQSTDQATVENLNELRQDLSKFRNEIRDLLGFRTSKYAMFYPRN
Chain of TRPC4/TRPC1 (P48995 whole entry, one chain of several): as above

## Cn1c(=O)n(CCCO)c(=O)c2c1nc(Oc1cccc(OC(F)(F)F)c1)n2Cc1ccc(Cl)cc1 [ZERENCOTREP]
[1]
  IC50: 0.34 nM
TRPC1/TRPC5
  IC50: 0.19 nM
TRPC4/TRPC1
  IC50: 0.033 nM
[2]
  IC50: 0.012 nM
[3]
  IC50: 0.03 nM

## CCOC(=O)N1CCC(c2cc(O)n3nc(C)c(-c4ccc(F)cc4)c3n2)CC1
TRPC6 [4]
  EC50: 4.7 µM

## C=C[C@](C)(O)CC[C@H]1C(=C)C[C@H](O)[C@H]2C(C)(C)CCC[C@]12C
[5]
  IC50: 1570 nM

## Cn1c(=O)n(CCCO)c(=O)c2c1nc(Oc1cccc(Cl)c1)n2Cc1ccc(Cl)cc1
[6]
  Cp: 299 nmol/kg
[7]
  concentration at 2 h: 339 nM
[8]
  Fu: 0.4%

## Cc1nnsc1C(=O)Nc1ccc(-n2nc(C(F)(F)F)cc2C(F)(F)F)cc1
[9]
  IC50: 300 nM
[10]
  IC50: 4210 nM
ORAI1/STIM1
  IC50: 590 nM

## CCOC(=O)N1CCC(C)(c2cc(O)n3nc(C)c(-c4ccc(C(F)(F)F)cc4)c3n2)CC1
AGS [11]
  IC50: 17.1 µM
MKN-45
  IC50: 18.5 µM
AGS [12]
  inhibition in vivo at 100 mg/kg: 38.5%
AGS [13]
  inhibition in vivo at 200 mg/kg: 61.5%
TRPC6 [14]
  IC50: 1000 nM

## CCOC(=O)c1cnn(-c2ccc(NC(=O)C(Cl)=C(Cl)Cl)cc2)c1C(F)(F)F
[15]
  IC50: 700 nM
[16]
  IC50: 50 nM
[10]
  IC50: 540 nM
ORAI1/STIM1
  IC50: 540 nM
